According to patent publication US6488953B2, “Oral transmucosal delivery” (Controlled Therapeutics (Scotland) Ltd., priority 1998, dated 2002):
Where “and” joins values, the source holds several entries; their conditions need not be identical. Equal entries are not always repeated.

Columns and labels:
[1] = Apomorphine plasma levels after buccal inserts; type: in vivo, human; details: one subject, insert containing 20 mg
Method: 1.1 mm thick inserts containing 5, 10 and 20 mg of apomorphine were tested for drug release in six subjects. The levels of drug observed in plasma was 0.2 to 0.8 ng/ml for five of the subjects and reached 5 ng/ml for one subject after administering an insert containing 20 mg of apomorphine.

[2] = Apomorphine in-vivo release, 0.6 mm inserts; set-up: species or system human; details: individual subjects 1-8
Method: Inserts were prepared of thickness 0.6 mm and the release profile in-vitro compared with those of the 1.1 mm thick inserts.
A study was carried out in eight subjects. These included two subjects from the previous study and six new subjects.

S.Aureus = assay: MIC microbiological assay; type: cell-based; details: single drug
Text: (§1) A microbiological assay was developed to examine the efficacy of the colistin sulphate and tobramycin when loaded and released from the polymer at the same time. organisms were selected which were sensitive to only one of the antibiotics.

A.Xylosoxidans = assay: MIC microbiological assay; type: cell-based; details: single drug
Text: as §1

[3] = Oral dissolution model, chemical (HPLC) assay of tobramycin; type: physicochemical; details: for Chemical Dissolution (concentration in eluate): cells 1-3
Method: (§2) Six cells were sterilised by autoclaving and then connected to a Duran bottle of sterile water. The flow of water into the cell was controlled by a peristaltic pump (Watson Marlow, Falmouth, UK) to a rate of 0.5 ml/minute. Two different dosage forms (5.8 and 10.5 mg tobramycin) as 9.2 mm discs of thickness 1.7 mm and 130 mg weight were tested by placing directly under the inflow tube and media allowed to flow slowly across them. The dissolution cells were kept at an angle of about 10 degrees to the horizontal to allow flow away from the test units and towards the outflow tube where it was either run to waste or sampled for test. Samples of 2 ml were collected at various timepoints up to 3 hours and divided for chemical (HPLC) and microbiological assay. Tobramycin chemical analysis was carried out using a Dionex HPLC method. The microbiological assay was carried out by double diluting the eluted fractions with broth. These were then spiked with a known number of micro-organisms and incubated. The last tube without growth was then noted. By carrying this out in parallel against a series of prepared standards the inhibitory concentration could be derived.

micro-organisms = assay: Oral dissolution model, microbiological assay of eluted fractions; type: cell-based; details: cells 1-3
Method: as §2

[4] = Microbiological testing in-vitro, each drug alone; type: cell-based; details: examined alone
Text: as §1

[5] = In-vivo release of colistin sulphate and tobramycin from buccal inserts; details: four subjects
Text: The release of the two drugs was examined in four healthy subjects. The insert was placed against the buccal mucosa in the upper gingival tissue. Eating and smoking was not permitted during the study, drinking of tea, coffee or soft drinks was allowed.

[6] = Lysozyme in-vitro release from dried slices (BCA assay); type: physicochemical; details: five dried slices in 30 ml demineralised water, after 24 hours
Method: To determine the release profile of lysozyme from dried slices, five slices (0.86 g) were placed in a bottle and 30 ml of demineralised water added. Samples were taken regularly and analysed for protein using the BCA assay. A total of 22.9 mg (88.4%) was released after 24 hours.

## CN1CCc2cccc3c2[C@H]1Cc1ccc(O)c(O)c1-3 [Apomorphine]
[1]
  levels of drug observed in plasma: 5 ng/mL
[2]; 10 mg
  % RELEASE: 6.4% and 42.8% and 30.4% and 10.9% and 0.48% and 25.1% and 26.0% and 3.4%
[2]; 18 mg
  % RELEASE: 2.64% and 15.2% and 26.3% and 21.5% and 4.1% and 7.5% and 49.2% and 19.4%
[2]; 27 mg (am.)
  % RELEASE: 0.0% and 1.1% and 24.8% and 9.9% and 2.7% and 6.2% and 17.7% and 1.3%
[2]; 27 mg (pm.)
  % RELEASE: 0.0% and 6.2% and 32.6% and 23.6% and 4.4% and 1.3% and 29.6% and 3.0%

## NC[C@H]1O[C@H](O[C@H]2[C@H](O)[C@@H](O[C@H]3O[C@H](CO)[C@@H](O)[C@H](N)[C@H]3O)[C@H](N)C[C@@H]2N)[C@H](N)C[C@@H]1O [Tobramycin]
S.Aureus
  MIC: 4 μ μgml^−1
A.Xylosoxidans
  MIC: >256 μ μgml^−1
[3]; 5 mg Dose, 0.25 hrs
  Chemical Dissolution (concentration in eluate): 35.5 µg/mL and 26.7 µg/mL and 33.4 µg/mL
[3]; 5 mg Dose, 1 hrs
  Chemical Dissolution (concentration in eluate): 23.7 µg/mL and 17.7 µg/mL and 24.0 µg/mL
[3]; 5 mg Dose, 2 hrs
  Chemical Dissolution (concentration in eluate): 14.0 µg/mL and 15.8 µg/mL and 18.6 µg/mL
[3]; 5 mg Dose, 3 hrs
  Chemical Dissolution (concentration in eluate): 14.0 µg/mL and 12.0 µg/mL and 15.4 µg/mL
[3]; 10 mg Dose, 0.25 hrs
  Chemical Dissolution (concentration in eluate): 105.6 µg/mL and 85.3 µg/mL and 64.4 µg/mL
[3]; 10 mg Dose, 1 hrs
  Chemical Dissolution (concentration in eluate): 65.4 µg/mL and 44.6 µg/mL and 34.8 µg/mL
[3]; 10 mg Dose, 2 hrs
  Chemical Dissolution (concentration in eluate): 48.7 µg/mL and 36.9 µg/mL and 27.9 µg/mL
[3]; 10 mg Dose, 3 hrs
  Chemical Dissolution (concentration in eluate): 36.5 µg/mL and 32.0 µg/mL and 27.0 µg/mL
[3]; oral dissolution model, 0.5 ml/minute
  time for which controlled release is maintained: 3 h
micro-organisms; 5 mg Dose, 0.25 hrs
  Microbiological Measure of Activity (derived concentration): 32 mcg/ml and 36 mcg/ml
micro-organisms; 5 mg Dose, 2 hrs
  Microbiological Measure of Activity (derived concentration): 16 mcg/ml and 18 mcg/ml
micro-organisms; 5 mg Dose, 3 hrs
  Microbiological Measure of Activity (derived concentration): 16 mcg/ml and 18 mcg/ml
micro-organisms; 10 mg Dose, 0.25 hrs
  Microbiological Measure of Activity (derived concentration): 64 mcg/ml
micro-organisms; 10 mg Dose, 1 hrs
  Microbiological Measure of Activity (derived concentration): 64 mcg/ml and 32 mcg/ml
micro-organisms; 10 mg Dose, 2 hrs
  Microbiological Measure of Activity (derived concentration): 32 mcg/ml and 16 mcg/ml
micro-organisms; 10 mg Dose, 3 hrs
  Microbiological Measure of Activity (derived concentration): 32 mcg/ml and 16 mcg/ml
[4]
  microbiological activity: microbiologically active

## Colistin Sulphate
S.Aureus
  MIC: >32 μ μgml^−1
A.Xylosoxidans
  MIC: 8 μ μgml^−1
[5]; insert thickness 0.4 mm, 1 Hour
  Mean Amount of Drug Released (%): 48.8%
[5]; insert thickness 0.4 mm, 3 Hours
  Mean Amount of Drug Released (%): 98.6%
[5]; insert thickness 0.6 mm, 1 Hour
  Mean Amount of Drug Released (%): 32.4%
[5]; insert thickness 0.6 mm, 3 Hours
  Mean Amount of Drug Released (%): 92.8%
[5]; insert thickness 0.8 mm, 1 Hour
  Mean Amount of Drug Released (%): 26.7%
[5]; insert thickness 0.8 mm, 3 Hours
  Mean Amount of Drug Released (%): 83.4%
[5]; insert thickness 1.1 mm, 3 Hours
  Mean Amount of Drug Released (%): 57.9%
[4]
  microbiological activity: microbiologically active

## Lysozyme
[6]
  total released: 22.9 mg
  total released (%): 88.4%
